Assays:
[1] = system: A375 human melanoma xenografts; experiment: A375 human melanoma xenograft study 1 (tumor growth delay, toxicity); settings: for share of mice with CR responses: q3d×4
Text: The following study evaluates two intravenous formulations according to the present invention against human tumor xenografts in athymic nude mice. The study used the A375 human melanoma xenograft model to compare the in vivo antitumor efficacy of I.V. 9-nitro-camptothecin, in vehicles containing IDD-P which provides a particulate suspension of 9-nitro-camptothecin, and IDD-D which provides a droplet suspension of 9-nitro-camptothecin, to the efficacy of oral 9-nitro-camptothecin and intraperitoneal CAMPTOSAR®, HYCAMTIN®, and DTIC®.
In order to assess antitumor efficacy, groups of athymic nude mice (n=10) bearing ˜72-mg A375 melanomas were treated intravenously on the 5/2/5 schedule with 9-nitro-camptothecin in IDD-P at 3.0 mg/kg or 1.5 mg/kg and 9-nitro-camptothecin in IDD-D at 2.0 mg/kg or 1.0 mg/kg.
Husbandry: Female nude mice were 16 weeks of age (NCR-nufBr; Taconic Farms) for the A375 study. The mice were fed ad libitum water (reverse osmosis, 1 ppm Cl) and autoclaved Prolab NIH-31 M/5% Rodent Diet consisting of 18% protein, 5% fat, 6% fiber, and 8% ash. Mice were housed in static microisolators on a 12-hour light cycle at 21-22° C. (70-72° F.) and 40%-60% humidity.
Tumor Implantation: An A375 melanoma fragment (1 mm 3 ) was implanted subcutaneously in the flank of each nude mouse. When the tumors reached the 60-112 mg size range, the mice were sorted into treatment groups (on Day 1) such that the group mean tumor sizes ranged from 71.3 mg-72.5 mg. Estimated tumor weight was calculated using the formula: [formula]
Drug Formulations: IDD-P with a mean particle size of 0.07-0.06 mm and IDD-D with a mean particle size of 0.15 mm were prepared for the study by RTP Pharma Inc. For this, the 9-nitro-camptothecin suspensions were diluted with water and vehicle to provide doses of 3 mg/kg and 1.5 mg/kg in 33% IDD-P, and doses of 2 mg/kg and 1 mg/kg in 100% and 50% IDD-D, respectively. After dilution, 9-nitro-camptothecin suspensions were mixed thoroughly by gentle agitation and stored at 2-8° C. For its oral formulation, 9-nitro-camptothecin was dissolved in DMA (N,N-dimethylacetamide, SIGMA) and diluted with D5W to yield a final DMA concentration of 3%. CAMPTOSAR®, DTIC®, and HYCAMTIN® were obtained as the marketed drugs and solutions were prepared fresh on the day of dosing. CAMPTOSAR® (irinotecan, Pharmacia & Upjohn Company, 20 mg/ml) and DTIC® (dacarbazine, Bayer Corporation, 20 mg/ml) were diluted with D5W. HYCAMTIN® (topotecan, SmithKlein Beecham) was reconstituted with water at 1 mg/ml.
Treatments: Volumes of 0.20 ml per 20-g mouse, body-weight adjusted, were administered once daily. Tumor-bearing athymic nude mice were matched on Day 1 into 13 groups of ten animals and drug administration was initiated. The I.V. formulations of 9-nitro-camptothecin were given once daily on a 5/2/5 schedule as shown in the protocol summary shown in FIG. 4. Oral 9-nitro-camptothecin doses were given on a q3d×4 schedule (Days 1, 4, 8, and 11). Three reference drugs were administered I.P.: CAMPTOSAR® was given in three doses at weekly intervals (qwk×3); HYCAMTIN® was given in four doses at four-day intervals (q4d×4); and DTIC® was given in five consecutive daily doses (qd×5). The tumor growth control group for these reference treatments received no treatment (Group 1). The 9-nitro-camptothecin vehicle: 33.3% IDD-P, 100% IDD-D, and 3% DMA, was administered to vehicle control Groups 2-4, respectively.
Tumor Growth Endpoint: The tumor growth delay (TGD) method was used to assess efficacy. Tumor dimensions were measured twice weekly until the experiment was terminated on Day 62.

[2] = biological target: human serum albumin (HSA) (Homo sapiens, UniProt P02768); settings: PBS at pH 7.4; cited from earlier work
[3] = human plasma, pH 7.4, 37° C.; cited from earlier work
[4] = whole blood; cited from earlier work
[5] = 2.0 mg/kg p.o., q3d×4, Group 13, Day 62
[6] = 4.0 mg/kg p.o., q3d×4, Group 12, Day 62

human serum albumin (HSA), sequence (P02768 25-609): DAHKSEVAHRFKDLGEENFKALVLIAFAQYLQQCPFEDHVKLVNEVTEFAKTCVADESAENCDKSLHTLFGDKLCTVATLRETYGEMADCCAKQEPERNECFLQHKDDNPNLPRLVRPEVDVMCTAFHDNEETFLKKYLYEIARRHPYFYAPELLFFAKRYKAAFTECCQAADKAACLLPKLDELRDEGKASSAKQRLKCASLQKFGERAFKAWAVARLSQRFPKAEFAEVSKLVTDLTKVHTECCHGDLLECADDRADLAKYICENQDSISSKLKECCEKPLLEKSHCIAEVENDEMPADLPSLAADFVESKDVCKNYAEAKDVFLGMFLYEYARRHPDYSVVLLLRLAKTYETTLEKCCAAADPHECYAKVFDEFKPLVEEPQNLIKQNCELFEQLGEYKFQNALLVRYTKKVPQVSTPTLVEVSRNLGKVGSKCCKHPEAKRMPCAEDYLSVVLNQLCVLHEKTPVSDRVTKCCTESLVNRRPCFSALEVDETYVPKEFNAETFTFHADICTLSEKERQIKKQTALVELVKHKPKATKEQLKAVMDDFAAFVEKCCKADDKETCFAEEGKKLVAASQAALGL

Question: With `CCc1c2c(nc3ccc(OC(=O)N4CCC(N5CCCCC5)CC4)cc13)-c1cc3c(c(=O)n1C2)COC(=O)[C@]3(O)CC` [CAMPTOSAR®, irinotecan] as the molecule, how does the CR responses ([1]; 100 mg/kg I.P., qwk×3, Group 5, Day 62) read?
Answer: Its CR responses is “single and one”.

Question: Which results are given for `CC[C@@]1(O)C(=O)OCc2c1cc1n(c2=O)Cc2cc3c([N+](=O)[O-])cccc3nc2-1` [9-nitro-camptothecin in 3% DMA, 9-nitro-20(S)-camptothecin]?
Answer: share of mice with CR responses ([1]; 2 mg/kg p.o.): 40%; CR responses [1, 5]: 4; PR responses (printed RP) [1, 5]: 1; SD/PD responses [1, 5]: 2; 62-day survivors ([1]; 2.0 mg/kg p.o., q3d×4, Group 13, n=10): seven; share of mice with CR responses ([1]; 4 mg/kg p.o.): 40%; CR responses [1, 6]: 4; SD/PD responses [1, 6]: 3; 62-day survivors ([1]; 4.0 mg/kg p.o., q3d×4, Group 12, n=10): seven

Question: Which toxic deaths ([1]; 150 mg/kg I.P., qd×5, Group 7, n=10) does the source give for `CN(C)/N=N/c1[nH]cnc1C(N)=O` [DTIC®, dacarbazine] here?
Answer: The toxic deaths was “one and One”.

Question: For `CC[C@@](O)(C(=O)O)c1cc2n(c(=O)c1CO)Cc1cc3ccccc3nc1-2` [carboxylate form of camptothecin], which “affinity for HSA of carboxylate form relative to α-hydroxy lactone form” value [2] is on record?
Answer: The value was 150 fold.

Question: Which CR responses ([1]; 10 mg/kg I.P., q4d×4, Group 6, Day 62) does the source give for `CC[C@@]1(O)C(=O)OCc2c1cc1n(c2=O)Cc2cc3c(CN(C)C)c(O)ccc3nc2-1` [HYCAMTIN®, topotecan] here?
Answer: The CR responses was “single and one”.

Question: What does the source list for `CC[C@@]1(O)C(=O)OCc2c1cc1n(c2=O)Cc2cc3ccccc3nc2-1` [camptothecin, 20(S)-camptothecin]?
Answer: half-life of α-hydroxy lactone ring opening [3]: 11 min; half-life of α-hydroxy lactone [4]: 22 min

Source: patent US6534080B2, “Method for administering camptothecins via injection of pharmaceutical composition comprising coated particles of a camptothecin” (priority 2001, dated 2003)
